Patent US7943795B2, “Vitamin D receptor modulators” (Eli Lilly and Company, priority 2004, dated 2011)

What was measured:
[1] = Mouse hypercalcemia assay; assay type: in vivo
Description: 5. The Mouse Hypercalcemia test is described in the “Assay” section of the Description, infra.
The Mouse Hypercalcemia Assay
The Mouse Hypercalcemia Assay is a six day hypercalcemia test for toxicity and selectivity. Acceptable test results are levels greater than 30 μg/kg/day. Preferred assay results are levels greater than 300 μg/kg/day.
Weanling, virus—antibody-free, five to six weeks old female DBF mice (Harlan, Indianapolis, Ind.) are used for all the studies. Animals are allowed to acclimate to local vivarium conditions for 2 days. Mice are maintained on a 12 hr light/dark cycle at 22° C. with ad lib access to food (TD 5001 with 1.2% Ca and 0.9% P, Teklad, Madison, Wis.) and water. The animals then are divided into groups with 4-5 mice per group. Different doses of test compounds prepared in 10% ethanol and 90% sesame oil, or in an aqueous suspension of sodium lauryl sulfate and CMC (the latter formulation for acidic compounds) are administered to mice orally via gavage for 6 days. 1α-25(OH)2D3 0.5 μg/kg/d was also given to one group of mice as the positive control. Serum ionized calcium is evaluated at 6 hours after the last dosing under isoflurane anesthesia by Ciba-Corning Ca++/PH Analyzer, (Model 634, Chiron Diagnostics Corp., East Walpole, Mass.). Raw data of group differences is assessed by analysis of variance (ANOVA) using Fisher's protected least significant difference (PLSD) where the significance level was P<0.05.

RXR-VDR heterodimer = target: T1, RXR-VDR heterodimer (Homo sapiens, UniProt P11473); assay: RXR-VDR heterodimerization (SaOS-2 cells) test; assay type: cell-based; details: Gal-4-RXR-DEF / VP16-VDR-LBD, luciferase reporter
T1 construct: add the Reporter gene pFR-LUC; and add the Gal-4-RXR-DEF and VP16-VDR-LBD; expressed in transfected cells; host or cells: SaOS-2 cells
T1 sequence (P11473 127-423 limits assumed): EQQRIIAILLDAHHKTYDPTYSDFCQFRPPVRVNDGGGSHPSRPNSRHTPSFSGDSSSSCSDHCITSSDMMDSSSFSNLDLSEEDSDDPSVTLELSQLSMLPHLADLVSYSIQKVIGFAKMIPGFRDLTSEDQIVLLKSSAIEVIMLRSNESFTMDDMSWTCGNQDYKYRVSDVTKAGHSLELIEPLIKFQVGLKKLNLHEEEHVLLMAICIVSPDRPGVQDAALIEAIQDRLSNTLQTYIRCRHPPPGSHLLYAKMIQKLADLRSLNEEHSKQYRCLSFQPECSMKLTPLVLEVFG
T1 sequence (P19793 201-462 partner limits assumed): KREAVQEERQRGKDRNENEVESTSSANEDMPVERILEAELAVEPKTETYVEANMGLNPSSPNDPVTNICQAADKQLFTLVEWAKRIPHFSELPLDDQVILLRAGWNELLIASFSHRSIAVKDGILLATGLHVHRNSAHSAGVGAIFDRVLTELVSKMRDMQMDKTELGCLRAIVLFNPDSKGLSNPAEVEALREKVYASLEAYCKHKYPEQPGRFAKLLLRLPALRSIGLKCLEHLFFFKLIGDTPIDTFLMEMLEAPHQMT
Description: 2. The RXR-VDR heterodimerization (SaOS-2 cells) test is described in the “Assay” section of the Description, infra.
1. The RXR-VDR Heterodimer Assay:
This assay provides the VDR activity of a test compound. It is desirable to have low EC50 values for a compound in this assay. […] Desired assay results are EC50 values less than or equal to 600 nM. Preferred assay results are less than 250 nM, and most preferably less than 150 nM.
(1) Materials and Method for RXR-VDR Heterodimerization Assay Transfection
• Method: Reagents: FuGENE 6 Transfection Reagent (Roche Cat #1 814 443); Growth Media: D-MEM High Glucose (Gibco BRL Cat #11054-020), 10% heat inactivated FBS, (Gibco BRL Cat#10092-147) 1% antibiotic-antimycotic (Ab-Am); (Gibco BRL Cat #15240-062). • Cells: Grow SaOS-2 cells in T-150 cm^2 culture flasks in growth media keeping the density at 5-6×10^5 cells/ml. Passage cells 1:3 twice a week. Add Trypsin EDTA (Gibco BRL Cat #25300-020) and incubate. Resuspend cells in plating media and transfer into growth media. • Wash Media: HBSS Low Glucose Without Phenol Red (Gibco BRL Cat #14175-095), 1% Ab-Am. Plating Media: D-MEM Low Glucose Without Phenol Red (Gibco BRL Cat #11054-020), 1% Ab-Am; D-MEM; 10% Stripped FBS (Hyclone Cat#SH30068.03 Lot #AHM9371); • Transfection/Treatment Media: D-MEM Low Glucose Without Phenol Red only; T-150 cm^2 culture flask: Use Corning Coastar T-150 cm^2 culture flask (Cat #430825) to grow the cells. • Luciferase Assay Reagent: Use Steady-Glo Luciferase Reagent from Promega (Cat #E2550) Consists of: E2533 Assay Substrate, lyophilized product and E2543 Assay Buffer. Thaw at room temperature and store. • Cell Harvesting/Count: Aspirate media from culture flask, rinse cells with HBSS and aspirate. Add trypsin and incubate. When cells appear detached, resuspend cells in growth media. Transfer into a new flask with fresh growth media for passaging the cells. Plate 96 well plates and two extra plates. Mix the cell suspension using pipette. To count the cells using a Hematocytometer. • Plate seeding: Use plating media 10% Stripped FBS in D-MEM Low Glucose, without Phenol Red, 1% Ab-Am. Plate 14 plates @ 165 μl/well. In sterile flask add cell suspension to plating media and mix. Add cells/well. Place the cells in the incubator. Cells should be about 75% confluent prior to transfection. DAY 2: Transfection: Step 1, DNA and Media: Add plain DMEM media to tubes for mixing the DNA; add the Reporter gene pFR-LUC; and add the Gal-4-RXR-DEF and VP16-VDR-LBD. Step 2, FuGENE and Media: Prepare plain DMEM media in a tubes for mixing FuGENE, add FuGENE 6 Transfection Reagent, and incubate. Step 3, FuGENE, DNA and Media Complex: Add FuGENE Media complex from step 2 to DNA Media complex from step 1 and incubate. Step 4, FuGENE, DNA and Media Complex to 96 well plate: Add FuGENE-DNA-Media complex from step 3 to each plate. Incubate. • Day 3: Dosing: Treatment preparation. Allow for transfection time. Make a stock solution of the compounds in DMSO and vortex until all the compounds have been dissolved. Further dilute in D-MEM (Low Glucose—without Phenol Red) Add compounds in quadruplicate to give desired final volume then incubate. • Day 4: Luciferase Assay: Read the plates after drug treatment. Remove part of media from all the wells and leave remainder. Add Steady-Glo Luciferase Reagent mixture/wells and incubate. Count each well using a Luminescence counter, Top Count NXT by Packard preferably set a delay between plates to reduce the background.

rat osteocalcin promoter = assay: OCN (osteocalcin) promoter assay; assay type: cell-based; details: RG-15 (ROS 17/2.8) cells, 48 hr treatment, luciferase reporter
Description: 4. The OCN Promoter test is described in the “Assay” section of the Description, infra.
The OCN (Osteocalcin) Promoter Assay
The OCN Promoter Assay is an indicator and marker for osteoporosis. Desired assay results are EC50 less than or equal to 325 nM. Preferred assay results are less than 50 nM.
The activation of osteocalcin by VDR ligands is evaluated in a rat osteoblast-like cell line RG-15 (ROS 17/2.8) stably expressing rat osteocalcin promoter fused with luciferase reporter gene. The stable cell lines are established as reported before (Activation of Osteocalcin Transcription involves interaction of protein kinase A- and Protein kinase C-dependent pathways. Boguslawski, G., Hale, L. V., Yu, X.-P., Miles, R. R., Onyia, J. E., Santerre R. F., Chandrasekhar, S. J Biol. Chem. 275, 999-1006, 2000). Confluent RG-15 cells maintained in DMEM/F-12 medium (3:1) containing 5% FBS, 300 μg/ml G418 and at 37° C. under 5% CO2/95% air atmosphere are trypsinized (0.25% trypsin) and plated into white opaque 96-well cell culture plates (25000 cells/well). After 24 hr, cells (in DMEM/F-12 medium+2% FBS) are treated with various concentrations of compounds, dissolved in DMSO. The final DMSO concentration remains at 0.01% (v/v). After 48 hr treatment, the medium is removed, cells are lysed with 50 μl of lysis buffer (From Luciferase reporter assay system, Roche Diagnostics, Indianapolis, Ind.) and then assayed for luciferase activity using the Luciferase Reporter Gene Assay kit from Boehringer Mannheim as per manufacturer's specifications.

VDR = target: T2, VDR (Homo sapiens, UniProt P11473); assay: VDR CTF (Caco-2 cells) co-transfection assay; assay type: cell-based; details: pGal4-VDR-LBD, luciferase reporter
T2 construct: the receptor expression vector pGal4-VDR-LBD (10 ng); expressed in transfected cells; host or cells: Caco-2 cells
T2 sequence (P11473 127-423 limits assumed): T1 sequence (P11473 127-423 limits assumed)
Description: 3. The VDR CTF (Caco-2 cells) test is described in the “Assay” section of the Description, infra.
The Caco-2 cell assay is an indicator for the undesirable condition of hypercalcemia. This co-transfection assay is a surrogate assay for in vivo calcemic activity of VDR ligands. It is desirable to have high EC50 values for a test compound in this assay. The higher the EC50 values for a compound the less calcemic it will be in vivo. Desired assay results are EC50 greater than or equal to 300 nM. Preferred assay results are greater than 1000 nM.
Caco-2 cells, grown in phenol red free, DMEM (Invitrogen, Carlsbad, Calif.) containing 10% charcoal-stripped FBS (Hyclone, Logan, Utah), are transfected with Fugene 6 reagent (Roche Diagnostics, Indianapolis, Ind.). Cells (5000/well) are plated 18 h before transfection in a 96 well plate. The cells are transfected with Gal4-responsive reporter pFRLuc (150 ng, Stratagene, La Jolla Calif.) and the receptor expression vector pGal4-VDR-LBD (10 ng), along with Fugene 6 reagent (0.2 μl/well). The DNA-Fugene complex is formed by incubating the mixture for 30 m at room temperature. The cells are transfected in triplicate for 5 h, and treated with various concentrations of VDR ligands (from 0.01 nM to […] concentration range) 18 h post-transfection. The luciferase activity is quantified using Steady-Glo reagent kit (Promega, Madison, Wis.) as per manufacturer's specifications.

[2] = no effect level: highest dose that did not cause hypercalcemia, oral gavage for 6 days, female DBF mice, serum ionized calcium

| Structure (SMILES) | Mouse Hypercal ([1]; female, DBF, mouse, in vivo, po, 6 days) | EC50 (RXR-VDR heterodimer) | EC50 (rat osteocalcin promoter) | EC50 (rat osteocalcin promoter; Rattus norvegicus, 48 h) | EC50 (VDR) | Mouse Hypercal [1, 2] |
| --- | --- | --- | --- | --- | --- | --- |
| CCC(CC)(c1ccc(OCC(O)C(C)(C)C)c(C)c1)c1ccc2cc(C(=O)O)ccc2c1 (single isomer, unassigned) [Ex. 2B, 6-{1-Ethyl-1-[4-(2-hydroxy-3,3-dimethyl-butoxy)-3-methyl-phenyl]-propyl}-naphthalene-2-carboxylic acid] | 1000 µg/kg/day | 25.3 nM | 18.4 nM |  |  |  |
| CCC(CC)(c1ccc(OCC(=O)C(C)(C)C)c(C)c1)c1ccc2ccc(C(=O)O)cc2c1 [Ex. 6, 7-{1-[4-(3,3-Dimethyl-2-oxobutoxy)-3-methylphenyl]-1-ethylpropyl}naphthalene-2-carboxylic acid] |  | 715 nM |  | 104 nM | 714 nM |  |
| CCC(Oc1ccc(C(CC)(CC)c2ccc3cc(C(=O)NCC(=O)O)ccc3c2)cc1C)C(O)C(C)(C)C (stereo not drawn) [Ex. 7, 2-[6-{1-ethyl-1-[4-(1-ethyl-2-hydroxy-3,3-dimethyl-butoxy)-3-methyl-phenyl]-propyl}-naphthalene-2-carbonylamino]acetic acid] |  | 2.6 nM |  | 0.7 nM |  | 100 µg/kg/day |
| CCC(Oc1ccc(C(CC)(CC)c2ccc3cc(C(=O)N(C)CC(=O)O)ccc3c2)cc1C)C(O)C(C)(C)C (stereo not drawn) [Ex. 8, N-methyl-2-[6-{1-ethyl-1-[4-(1-ethyl-2-hydroxy-3,3-dimethyl-butoxy)-3-methyl-phenyl]-propyl}-naphthalene-2-carbonyl-amino]acetic acid] |  | 2 nM |  | 0.6 nM |  | 300 µg/kg/day |
